Test results published in patent US8980848B2, “Flavonoid dimers and their use” (The Hong Kong Polytechnic University, priority 2010, dated 2015).

Columns and labels:
[1] = Tumor cell line cytotoxicity of flavonoid dimers, LCC6MDR; assay type: cell-based, human; details: human, LCC6MDR cells, IC50 of compound alone
Experimental: (§1) (b) Tumor Cell Line Cytotoxicity. The tumor cytotoxicity assays of flavonoid dimers were performed against LCC6, LCC6MDR and L929 cell lines. […] In brief, LCC6, LCC6MDR and L929 cells were seeded into 96-well flat bottom microtiter plate at 1×10^4 cells per well in a final volume of 100 μL media, respectively. A graded dose of flavonoid dimers was added into wells. The plate was incubated at 37° C. for 72 hrs at the atmosphere 5% CO2 in the air. The % of survivors was determined.

[2] = Tumor cell line cytotoxicity of flavonoid dimers, LCC6; assay type: cell-based, human; details: human, LCC6 cells, IC50 of compound alone
Experimental: as §1

[3] = Cytotoxicity of flavonoid dimers, L929 mouse fibroblast; assay type: cell-based; details: mouse, L929 fibroblast cells, IC50 of compound alone, 72 hrs, mouse fibroblast
Experimental: as §1

Pgp (LCC6MDR cells) = Pgp (LCC6MDR cells) (Homo sapiens, UniProt P08183); assay: Cell proliferation assay: Pgp-modulating activity, reversal of anticancer drug resistance in LCC6MDR cells; details: for RF (Relative Fold), cpd at 0.5 μM: RF = (IC50 without modulator)/(IC50 with 0.5 μM modulator); for RF (Relative Fold), cpd at 0.5 μM / RF (Relative Fold), cpd at 1 μM: paclitaxel; for RF (Relative Fold), cpd at 1 μM: RF = (IC50 without modulator)/(IC50 with 1.0 μM modulator)
Chain of Pgp (LCC6MDR cells) (P08183 whole entry): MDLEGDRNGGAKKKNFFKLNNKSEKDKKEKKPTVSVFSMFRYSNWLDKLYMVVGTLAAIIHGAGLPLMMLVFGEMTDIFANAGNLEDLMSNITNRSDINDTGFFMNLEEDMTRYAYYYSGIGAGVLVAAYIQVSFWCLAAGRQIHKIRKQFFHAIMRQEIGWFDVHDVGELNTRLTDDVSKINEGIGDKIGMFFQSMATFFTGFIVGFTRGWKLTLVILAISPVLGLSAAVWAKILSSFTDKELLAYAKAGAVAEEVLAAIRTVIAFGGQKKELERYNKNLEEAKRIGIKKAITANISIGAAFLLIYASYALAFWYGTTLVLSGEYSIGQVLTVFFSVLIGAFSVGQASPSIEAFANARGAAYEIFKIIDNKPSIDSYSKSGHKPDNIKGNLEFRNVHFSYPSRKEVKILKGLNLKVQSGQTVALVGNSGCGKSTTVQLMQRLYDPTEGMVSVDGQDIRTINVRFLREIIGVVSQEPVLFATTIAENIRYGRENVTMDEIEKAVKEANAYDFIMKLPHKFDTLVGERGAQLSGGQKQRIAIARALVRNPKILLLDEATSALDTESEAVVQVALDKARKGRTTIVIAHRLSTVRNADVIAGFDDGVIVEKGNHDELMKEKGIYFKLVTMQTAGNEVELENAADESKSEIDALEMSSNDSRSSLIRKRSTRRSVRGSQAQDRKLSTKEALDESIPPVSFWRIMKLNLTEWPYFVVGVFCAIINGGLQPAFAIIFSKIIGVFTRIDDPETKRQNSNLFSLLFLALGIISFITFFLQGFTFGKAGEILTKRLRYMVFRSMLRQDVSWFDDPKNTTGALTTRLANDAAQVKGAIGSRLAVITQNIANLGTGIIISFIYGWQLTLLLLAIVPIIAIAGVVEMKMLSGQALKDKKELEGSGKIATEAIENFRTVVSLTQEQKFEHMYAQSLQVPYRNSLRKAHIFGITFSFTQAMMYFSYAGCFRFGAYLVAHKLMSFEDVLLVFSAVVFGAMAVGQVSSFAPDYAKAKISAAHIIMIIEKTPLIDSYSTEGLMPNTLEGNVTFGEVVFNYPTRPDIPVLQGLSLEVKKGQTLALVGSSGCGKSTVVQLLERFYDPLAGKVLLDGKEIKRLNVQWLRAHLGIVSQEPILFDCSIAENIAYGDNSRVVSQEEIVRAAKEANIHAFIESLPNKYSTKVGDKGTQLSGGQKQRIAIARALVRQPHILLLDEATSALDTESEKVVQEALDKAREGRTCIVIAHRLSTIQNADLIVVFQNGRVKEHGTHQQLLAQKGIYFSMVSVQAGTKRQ
Experimental: Cell Proliferation Assay. 6,000 cells of LCC6 or LCC6MDR and anticancer drugs (paclitaxel, vinblastine, vincristine, doxorubicin and mitoxantrone) were mixed with or without modulators to a final volume of 200 μL in each well of 96-well plates. […] The plates were then incubated for 5 days at 37° C. […] IC50 values were calculated from the dose-response curves of MTS assays (Prism 4.0).

EC50 (Pgp (LCC6MDR cells); EC50 of compounds for reversing anticancer drug resistance (nM), Paclitaxel, LCC6MDR) [nM]	SMILES	IC50 at 72 h [1] [µM]	IC50 at 72 h [2] [µM]	IC50 at 72 h [3] [µM]	Therapeutic index (Pgp (LCC6MDR cells); IC50 of compounds for L929/EC50 of compounds for lowering paclitaxel drug resistance)	RF (Relative Fold), cpd at 0.5 μM (Pgp (LCC6MDR cells); LCC6MDR)	RF (Relative Fold), cpd at 1 μM (Pgp (LCC6MDR cells); LCC6MDR)
132 ± 7	O=c1cc(-c2ccc(OCCOCCN(CCOCCOc3ccc(-c4cc(=O)c5ccccc5o4)cc3)CC3CCCCC3)cc2)oc2ccccc12 [Compound 62, 1,13-Bis[4′-(4H-chromen-4-on-2-yl)phenyl]-7-(cyclohexanylmethyl)-1,4,10,13-tetraoxa-7-azamidecane]	7.9 ± 2.7	10 ± 4.7	18.9 ± 2.3	143.2	(56.7)	(117.8)
	CCc1ccc(CN(CCOCCOc2ccc(-c3cc(=O)c4ccccc4o3)cc2)CCOCCOc2ccc(-c3cc(=O)c4ccccc4o3)cc2)cc1 [Compound 53, 1,13-Bis[4′-(4H-chromen-4-on-2-yl)phenyl]-7-(4-ethylbenzyl)-1,4,10,13-tetraoxa-7-azamidecane]	> 100	> 100	25.4 ± 8.1		(23.9)	(69.6)
	O=c1cc(-c2ccc(OCCOCCN(CCOCCOc3ccc(-c4cc(=O)c5ccccc5o4)cc3)Cc3ccc(OC(F)(F)F)cc3)cc2)oc2ccccc12 [Compound 42b, 1,13-Bis[4′-(4H-chromen-4-on-2-yl)phenyl]-7-(4-trifluoromethoxybenzyl)-1,4,10,13-tetraoxa-7-azamidecane]	> 100	> 100	> 83		(3.8)	(47.8)
	Cc1ccc2oc(-c3ccc(OCCOCCNCCOCCOc4ccc(-c5cc(=O)c6cc(C)ccc6o5)cc4)cc3)cc(=O)c2c1 [Compound 12c, 1,13-Bis[4′-((6-methyl)-4H-chromen-4-on-2-yl)phenyl]-1,4,10,13-tetraoxa-7-azamidecane]	7 ± 1.4	7.5 ± 0.9	6 ± 0.6		(13.9)	
	O=c1cc(-c2ccc(OCCOCCN(CCOCCOc3ccc(-c4cc(=O)c5ccccc5o4)cc3)Cc3ccncc3Br)cc2)oc2ccccc12 [Compound 64d, 1,13-Bis[4′-(4H-chromen-4-on-2-yl)phenyl]-7-(4-(3-bromopyridyl)methyl)-1,4,10,13-tetraoxa-7-azamidecane]	> 100	> 100	> 50		(10.6)	(61.2)
